Several values for one entry are separate records, joined by “and”; a condition that tells them apart may be missing. Equal entries are not always repeated. Where two headings read alike, the source gives them in different places.
What was measured:
[1] = molecular target: T1, hCB2R (Homo sapiens, UniProt P34972); experiment: [3H]RO6957022 displacement assay; type: binding; settings: individual replicates
T1 construct: host or cells: CHO-K1 (CHOK1_hCB2bgal, PathHunter), membranes

[2] = molecular target: CB2R WT (Homo sapiens, UniProt P34972); experiment: [35S]GTPγS G protein activation assay, CB2R WT; type: biochemical; settings: for Emax: CB2R WT, read-out: Emax (%); for [35S]GTPγS binding, percentage of CP55,940: individual replicates
[3] = molecular target: CB2R-I110^3.29A (Homo sapiens, UniProt P34972, I110A); experiment: [35S]GTPγS assay, CB2R I110A mutant; type: biochemical; settings: for [35S]GTPγS binding: I1103.29A, individual replicates
[4] = molecular target: CB2R-S285^7.39A (Homo sapiens, UniProt P34972, S285A); experiment: [35S]GTPγS assay, CB2R S285A mutant; type: biochemical; settings: S285A mutant; at 10 µM compared to WT; read-out: Emax (%)
[5] = molecular target: CB2R-F117^3.36A (Homo sapiens, UniProt P34972, F117A); experiment: [35S]GTPγS assay, CB2R F117A mutant; type: biochemical
[6] = molecular target: CB2R-H95^2.65A (Homo sapiens, UniProt P34972, H95A); experiment: [35S]GTPγS assay, CB2R H95A mutant; type: biochemical
[7] = molecular target: CB2R-V261^6.51L (Homo sapiens, UniProt P34972, V261L); experiment: [35S]GTPγS assay, CB2R V261L mutant; type: biochemical; settings: for [35S]GTPγS binding: V2616.51L, individual replicates
[8] = molecular target: CB2R-E181^ECL2D (Homo sapiens, UniProt P34972, E181D); experiment: [35S]GTPγS assay, CB2R E181D mutant; type: biochemical; settings: E181D mutant; at 10 µM compared to WT; read-out: Emax (%)
[9] = molecular target: T2, CB2R-Quadruple^TM1,7 (Homo sapiens, UniProt P34972, C40S/K279T/K33Q/V36I); experiment: [35S]GTPγS assay, CB2R quadruple mutant; type: biochemical; settings: for [35S]GTPγS binding: QuadrupleTM1,7, individual replicates
[10] = molecular target: CB2R-I110^3.29L (Homo sapiens, UniProt P34972, I110L); experiment: [3H]CP55,940 displacement assay, CB2R I110L mutant; type: binding; settings: I1103.29L, individual replicates
[11] = molecular target: T2, CB2R-Quadruple^TM1,7; experiment: [3H]CP55,940 displacement assay, CB2R quadruple mutant; type: binding; settings: QuadrupleTM1,7, individual replicates
[12] = molecular target: hCB1R WT (Homo sapiens, UniProt P21554); experiment: [3H]CP55,940 displacement assay, CB1R WT; type: binding
[13] = molecular target: T3, CB1R-L359^6.51V (Homo sapiens, UniProt P21554, L359V); experiment: [3H]CP55,940 displacement assay, CB1R L359V mutant; type: binding
[14] = molecular target: T4, CB1R-H270^ECL2L (Homo sapiens, UniProt P21554, H270L); experiment: [3H]CP55,940 displacement assay, CB1R H270L mutant; type: binding
[15] = molecular target: T5, CB1R I267ECL2L (Homo sapiens, UniProt P21554, I267L); experiment: [3H]CP55,940 displacement assay, CB1R I267L mutant; type: binding
[16] = molecular target: T6, CB1R D266ECL2E (Homo sapiens, UniProt P21554, D266E); experiment: [3H]CP55,940 displacement assay, CB1R D266E mutant; type: binding
T6 construct: The WT CB1R and CB2R genes were subcloned into vector pcDNA3.1; HA signal peptide (N); expressed in transfected cells; host or cells: HEK293T (transient, membrane homogenates)

[17] = molecular target: T3, CB1R-L359^6.51V; experiment: [35S]GTPγS assay, CB1R L359V mutant; type: biochemical; settings: CB1R L359V; 10 µM agonist
[18] = molecular target: T4, CB1R-H270^ECL2L; experiment: [35S]GTPγS assay, CB1R H270L mutant; type: biochemical; settings: CB1R H270L; 10 µM agonist
[19] = molecular target: T5, CB1R I267ECL2L; experiment: [35S]GTPγS assay, CB1R I267L mutant; type: biochemical; settings: CB1R I267L; 10 µM agonist
[20] = system: CB1R QuadrupleTM1,7; experiment: [35S]GTPγS assay, CB1R quadruple mutant; type: biochemical, human; settings: CB1R Quadruple TM1,7; 10 µM agonist

T4 sequence (P21554 whole entry H270L): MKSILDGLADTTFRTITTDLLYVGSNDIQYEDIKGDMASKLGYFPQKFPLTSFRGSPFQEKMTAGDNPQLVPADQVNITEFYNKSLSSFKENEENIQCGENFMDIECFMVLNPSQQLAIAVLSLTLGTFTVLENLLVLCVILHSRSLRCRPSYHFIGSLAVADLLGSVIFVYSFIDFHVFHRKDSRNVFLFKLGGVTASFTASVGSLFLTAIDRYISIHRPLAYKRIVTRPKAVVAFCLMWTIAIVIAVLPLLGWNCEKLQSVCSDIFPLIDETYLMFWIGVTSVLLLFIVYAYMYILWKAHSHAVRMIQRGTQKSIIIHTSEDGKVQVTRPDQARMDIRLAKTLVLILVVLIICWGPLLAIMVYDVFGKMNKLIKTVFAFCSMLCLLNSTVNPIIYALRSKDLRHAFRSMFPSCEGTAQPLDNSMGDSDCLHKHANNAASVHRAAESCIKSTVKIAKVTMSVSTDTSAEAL
T6 sequence (P21554 whole entry D266E): as the sequence (P21554 whole entry H270L) above, with D266E, L270H counted along it
Chain of CB2R-I110^3.29L (P34972 whole entry I110L): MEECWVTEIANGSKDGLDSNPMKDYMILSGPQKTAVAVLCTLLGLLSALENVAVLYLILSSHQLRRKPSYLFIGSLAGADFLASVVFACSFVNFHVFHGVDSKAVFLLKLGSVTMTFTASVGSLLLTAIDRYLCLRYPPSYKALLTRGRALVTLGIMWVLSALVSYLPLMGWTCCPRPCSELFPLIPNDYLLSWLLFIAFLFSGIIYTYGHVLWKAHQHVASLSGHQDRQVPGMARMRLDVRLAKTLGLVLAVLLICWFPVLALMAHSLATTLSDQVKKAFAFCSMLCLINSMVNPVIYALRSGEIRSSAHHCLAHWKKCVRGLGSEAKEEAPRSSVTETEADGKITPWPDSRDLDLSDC
T1 sequence (P34972 whole entry): as the sequence (P34972 whole entry I110L) above, with L110I counted along it
Chain of CB2R WT (P34972 whole entry): as the sequence (P34972 whole entry I110L) above, with L110I counted along it
Chain of CB2R-V261^6.51L (P34972 whole entry V261L): as the sequence (P34972 whole entry I110L) above, with L110I, V261L counted along it
T5 sequence (P21554 whole entry I267L): as the sequence (P21554 whole entry H270L) above, with I267L, L270H counted along it
T3 sequence (P21554 whole entry L359V): as the sequence (P21554 whole entry H270L) above, with L270H, L359V counted along it
Chain of CB2R-F117^3.36A (P34972 whole entry F117A): as the sequence (P34972 whole entry I110L) above, with L110I, F117A counted along it
T2 sequence (P34972 whole entry K33Q/V36I/C40S/K279T): as the sequence (P34972 whole entry I110L) above, with K33Q, V36I, C40S, L110I, K279T counted along it
Chain of CB2R-I110^3.29A (P34972 whole entry I110A): as the sequence (P34972 whole entry I110L) above, with L110A counted along it
Chain of hCB1R WT (P21554 whole entry): as the sequence (P21554 whole entry H270L) above, with L270H counted along it
Chain of CB2R-H95^2.65A (P34972 whole entry H95A): as the sequence (P34972 whole entry I110L) above, with H95A, L110I counted along it
Chain of CB2R-S285^7.39A (P34972 whole entry S285A): as the sequence (P34972 whole entry I110L) above, with L110I, S285A counted along it
Chain of CB2R-E181^ECL2D (P34972 whole entry E181D): as the sequence (P34972 whole entry I110L) above, with L110I, E181D counted along it

percentage specific [3H]RO6957022 binding (displacement) ([1]; log [agonist] (M) -5): 6.59% and 5.28% and -3.87%
percentage specific [3H]RO6957022 binding (displacement) ([1]; log [agonist] (M) -6): 1.67% and 12.98% and 3.83%
percentage specific [3H]RO6957022 binding (displacement) ([1]; log [agonist] (M) -7): 44.82% and 59.70% and 42.04%
percentage specific [3H]RO6957022 binding (displacement) ([1]; log [agonist] (M) -7.5): 76.53% and 76.83% and 76.84%
percentage specific [3H]RO6957022 binding (displacement) ([1]; log [agonist] (M) -8): 102.92% and 92.08% and 89.96%
percentage specific [3H]RO6957022 binding (displacement) ([1]; log [agonist] (M) -9): 120.09% and 94.02% and 99.12%
Emax ([2]; maximum effect at 10 µM compared to WT (Suppl. Table 6)): 109 ± 3%
Emax ([2]; maximum effect compared to CP55,940): 134 ± 12%
[35S]GTPγS binding, percentage of CP55,940 ([2]; log [agonist] (M) -5): 148.28% and 110.29% and 144.01%
[35S]GTPγS binding, percentage of CP55,940 ([2]; log [agonist] (M) -6): 121.47% and 91.68% and 110.37%
[35S]GTPγS binding, percentage of CP55,940 ([2]; log [agonist] (M) -7): 71.38% and 61.86% and 107.40%
[35S]GTPγS binding, percentage of CP55,940 ([2]; log [agonist] (M) -8): 40.70% and 28.22% and 92.24%
[35S]GTPγS binding, percentage of CP55,940 ([2]; log [agonist] (M) -9): -4.49% and -11.58% and 35.79%
[35S]GTPγS binding, percentage of CP55,940 ([2]; log [agonist] (M) -10): 14.57% and -14.11% and 7.29%
Emax ([3]; I110A mutant, at 10 µM compared to WT, read-out: Emax (%)): 28 ± 9%
Emax [4]: 49 ± 6%
Emax ([5]; F117A mutant, at 10 µM compared to WT, read-out: Emax (%)): 2 ± 6%
drop in potency compared to WT ([6]; H95A mutant vs WT, [35S]GTPγS): 158 fold
Emax ([6]; H95A mutant, at 10 µM compared to WT, read-out: Emax (%)): 50 ± 1%
drop in potency compared to WT ([7]; V261L mutant vs WT, [35S]GTPγS): 10 fold
Emax ([7]; V261L mutant, at 10 µM compared to WT, read-out: Emax (%)): 6 ± 2%
Emax [8]: 39 ± 6%
Emax ([9]; Quadruple TM1,7 mutant, at 10 µM compared to WT, read-out: Emax (%)): 35 ± 7%
percentage specific [3H]CP55,940 binding ([10]; log [ligand] (M) -5): 4.49% and 2.95% and 7.70%
percentage specific [3H]CP55,940 binding ([10]; log [ligand] (M) -6): 22.45% and 22.51% and 25.37%
percentage specific [3H]CP55,940 binding ([10]; log [ligand] (M) -7): 63.92% and 66.51% and 68.51%
percentage specific [3H]CP55,940 binding ([10]; log [ligand] (M) -8): 89.64% and 87.54% and 115.07%
percentage specific [3H]CP55,940 binding ([10]; log [ligand] (M) -9): 93.11% and 90.99% and 98.90%
percentage specific [3H]CP55,940 binding ([10]; log [ligand] (M) -10): 86.70% and 95.29% and 99.01%
percentage specific [3H]CP55,940 binding ([11]; log [ligand] (M) -5): -3.75% and 13.92% and 33.90%
percentage specific [3H]CP55,940 binding ([11]; log [ligand] (M) -6): 31.56% and 68.45% and 21.77%
percentage specific [3H]CP55,940 binding ([11]; log [ligand] (M) -7): 107.34% and 102.91% and 64.85%
percentage specific [3H]CP55,940 binding ([11]; log [ligand] (M) -8): 162.50% and 142.72% and 87.25%
percentage specific [3H]CP55,940 binding ([11]; log [ligand] (M) -9): 116.72% and 143.53% and 100.93%
percentage specific [3H]CP55,940 binding ([11]; log [ligand] (M) -10): 74.84% and 102.27% and 99.53%
Displacement (%) of [3H]CP55,940 ([12]; CB1R WT, 10 µM compound): -19 ± 17%
Displacement (%) of [3H]CP55,940 ([13]; CB1R L359V, 10 µM compound): 18 ± 9%
Displacement (%) of [3H]CP55,940 ([14]; CB1R H270L, 10 µM compound): 8 ± 3%
Displacement (%) of [3H]CP55,940 ([15]; CB1R I267L, 10 µM compound): -24 ± 17%
Displacement (%) of [3H]CP55,940 ([16]; CB1R D266E, 10 µM compound): 12 ± 7%
Agonist-mediated activation [17]: 1.1 ± 0.1 fold over its basal
Agonist-mediated activation [18]: 1.1 ± 0.0 fold over its basal
Agonist-mediated activation [19]: 0.9 ± 0.0 fold over its basal
SMILES: CC(C)(C)[C@@H](CO)NC(=O)c1nn(-c2c[n+]([O-])ccn2)c2c1C[C@@H]1C[C@H]21 [APD371]
[35S]GTPγS binding ([3]; log [ligand] (M) -5): 8.02 percentage of WT and 49.60 percentage of WT and 23.20 percentage of WT and 29.78 percentage of WT
[35S]GTPγS binding ([3]; log [ligand] (M) -6): -6.90 percentage of WT and 31.60 percentage of WT and 8.00 percentage of WT and 14.76 percentage of WT
[35S]GTPγS binding ([3]; log [ligand] (M) -7): -11.72 percentage of WT and 23.80 percentage of WT and 1.10 percentage of WT and 21.50 percentage of WT
[35S]GTPγS binding ([3]; log [ligand] (M) -8): -18.83 percentage of WT and 1.40 percentage of WT and -5.80 percentage of WT and 9.14 percentage of WT
[35S]GTPγS binding ([3]; log [ligand] (M) -9): -17.87 percentage of WT and 6.80 percentage of WT and -8.60 percentage of WT and -1.19 percentage of WT
[35S]GTPγS binding ([3]; log [ligand] (M) -10): -16.57 percentage of WT and -10.00 percentage of WT and -2.40 percentage of WT and -10.68 percentage of WT
[35S]GTPγS binding ([5]; F1173.36A, log [ligand] (M) -5, individual replicates): -3.66 percentage of WT and 14.36 percentage of WT and -4.64 percentage of WT
[35S]GTPγS binding ([7]; log [ligand] (M) -5): 2.52 percentage of WT and 5.75 percentage of WT and 9.01 percentage of WT
[35S]GTPγS binding ([7]; log [ligand] (M) -6): -3.29 percentage of WT and 5.08 percentage of WT and 17.22 percentage of WT
[35S]GTPγS binding ([7]; log [ligand] (M) -7): 3.77 percentage of WT and -3.23 percentage of WT and 7.12 percentage of WT
[35S]GTPγS binding ([7]; log [ligand] (M) -8): -13.41 percentage of WT and -9.01 percentage of WT and -7.07 percentage of WT
[35S]GTPγS binding ([7]; log [ligand] (M) -9): -3.12 percentage of WT and -6.34 percentage of WT and -8.82 percentage of WT
[35S]GTPγS binding ([7]; log [ligand] (M) -10): 6.63 percentage of WT and -9.97 percentage of WT and -1.94 percentage of WT
[35S]GTPγS binding ([9]; log [ligand] (M) -5): 35.07 percentage of WT and 47.26 percentage of WT and 22.67 percentage of WT
[35S]GTPγS binding ([9]; log [ligand] (M) -6): 15.07 percentage of WT and 38.79 percentage of WT and 23.35 percentage of WT
[35S]GTPγS binding ([9]; log [ligand] (M) -7): -3.98 percentage of WT and 20.94 percentage of WT and 22.86 percentage of WT
[35S]GTPγS binding ([9]; log [ligand] (M) -8): 22.19 percentage of WT and 25.68 percentage of WT and 22.32 percentage of WT
[35S]GTPγS binding ([9]; log [ligand] (M) -9): -7.96 percentage of WT and -0.64 percentage of WT and 0.99 percentage of WT
[35S]GTPγS binding ([9]; log [ligand] (M) -10): -4.29 percentage of WT and 0.80 percentage of WT and 9.16 percentage of WT
percentage specific [3H]CP55,940 binding ([12]; CB1R - WT, 10 µM ligand, replicates 1-3): 104.41 percentage and 153.95 percentage and 99.24 percentage
percentage specific [3H]CP55,940 binding ([13]; CB1R L3596.51V, 10 µM ligand, replicates 1-3): 78.52 percentage and 68.29 percentage and 98.34 percentage
percentage specific [3H]CP55,940 binding ([14]; CB1R H270ECL2L, 10 µM ligand, replicates 1-3): 89.52 percentage and 87.15 percentage and 98.55 percentage
percentage specific [3H]CP55,940 binding ([15]; CB1R I267ECL2L, 10 µM ligand, replicates 1-3): 153.09 percentage and 95.47 percentage and 123.57 percentage
percentage specific [3H]CP55,940 binding ([16]; CB1R D266ECL2E, 10 µM ligand, replicates 1-3): 74.46 percentage and 89.45 percentage and 99.44 percentage
Agonist-mediated activation [20]: 1.1 ± 0.0 fold over its basal
